Entries after “also recorded” stand apart in the source; their conditions may differ.
Assays:
[1] = system: neuronal uptake of noradrenaline into slices of cerebral cortex; assay: Inhibition of noradrenaline uptake in brain slices; type: cell-based, rat; conditions: for Potency Ratio (imipramine = 1.0) Noradrenaline: inhibition of noradrenaline uptake, rat cerebral cortex slices, relative to imipramine = 1.0; for Inhibition of noradrenaline uptake (in words): qualitative
Source text: Concentration-response curves are obtained both for the test compound and for the standard agent, imipramine. The potency of each test compound is expressed in proportion to that of imipramine. Thus, the potency ratio for the test compound= [formula]

[2] = system: uptake of 5-hydroxytryptamine in slices of cerebral cortex; assay: Inhibition of 5-hydroxytryptamine uptake in brain slices; type: cell-based, rat; conditions: for Potency Ratio (imipramine = 1.0) 5-Hydroxytryptamine: inhibition of 5-hydroxytryptamine uptake, rat cerebral cortex slices, relative to imipramine = 1.0; for Inhibition of 5-hydroxytryptamine uptake (in words): qualitative
Method: The effects of test compounds on the neuronal uptake of noradrenaline into slices of cerebral cortex prepared from rat brain is determined according to the method described by Snyder, Green and Hendley, Kinetics of H^3 -norepihephrine accumulation into slices from different regions of the rat brain (J. Pharm. exp. Therap. 164: 90-102) (1968). The effects of test compounds on the uptake of 5-hydroxytryptamine is obtained in a similar manner except that H^3 5-hydroxytryptamine is used in place of H^3 noradrenaline. Concentration-response curves are obtained both for the test compound and for the standard agent, imipramine. The potency of each test compound is expressed in proportion to that of imipramine. Thus, the potency ratio for the test compound= [formula]

hypertensive rats [3] = assay: Anti-hypertensive activity in deoxycorticosterone acetate hypertensive rats; type: in vivo, rat; conditions: for Reduction of blood pressure (in words): hypertensive rats, p.o., qualitative
Method: Female rats are rendered hypertensive by unilateral nephrectomy and the s.c. implantation of a pellet containing 30 mg of deoxycorticosterone acetate. The drinking water is replaced by normale saline ad lib for the first four weeks following preparation. Blood pressure stabilise at a hypertensive level after 6 weeks. Systolic pressure is measured indirectly before dosing with a test compound using an E and M pneumatic pulse transducer and a Devices MX2 recorder. Groups of 4 rats are dosed orally with suspensions or solutions of the test compound in 0.5% hydroxypropyl-methyl-cellulose 0.9% saline vehicle. Blood pressures are recorded again at 2, 6 and 24 hours and the results, expressed as a percentage of the pre-dose values compared with those of a similar group of rats receiving vehicle alone.

hypertensive rats [4] = assay: Another procedure for determining anti-hypertensive activity in hypertensive rats; type: in vivo, rat; conditions: qualitative
mice (CF-1) = assay: CNS Activity (Effect on Behaviour of Mice); type: in vivo, mouse (CF-1)
Method: The test compounds are administered orally to three mice (CF-1 14 to 24 grams) at each of the following doses: 400, 127, 40 and 12.7 mg/kg. The animals are watched for two hours during which time signs of general stimulation (i.e. increased spontaneous motor activity, hyperactivity on tactile stimulation, twitching), general depression (i.e. decreased spontaneous motor activity, decreased respiration) and autonomic activity (i.e. miosis, mydriasis, diarrhoea) are noted.

mice = assay: Motor Activity (Exploratory behaviour in mice); type: in vivo, mouse; conditions: i.p., qualitative
Method: The test compounds were administered i.p. to mice (3 groups of 4 per dose) at time 0. Seventy minutes later the animals were transferred to square boxes placed beneath the detector heads of Aktograph activity monitors. The exploratory activity of the mice was counted over the following 20 minute period.

[5] = system: post-synaptic 5HT receptor; assay: 5HT Antagonism in Vitro (isolated rat ileum); type: cell-based
[6] = 10 mg/kg p.o., 2 hr after dosing
[7] = 10 mg/kg p.o., 6 hr after dosing
[8] = 10 mg/kg p.o., 24 hr after dosing
[9] = 25 mg/kg p.o., 2 hr after dosing
[10] = 25 mg/kg p.o., 6 hr after dosing
[11] = 25 mg/kg p.o., 24 hr after dosing
[12] = 50 mg/kg p.o., 2 hr after dosing
[13] = 50 mg/kg p.o., 6 hr after dosing
[14] = 50 mg/kg p.o., 24 hr after dosing
[15] = mice, oral, watched for two hours

For `O=C(NC(=O)c1ccccc1)NC1CCN(CCc2c[nH]c3ccccc23)CC1` [Compound II, 1-benzoyl-3-[1-(2-[3-indolyl]ethyl)piperid-4-yl]urea], the “Potency Ratio (imipramine = 1.0) Noradrenaline” value [1] was 0.2, the “Inhibition of noradrenaline uptake (in words)” value [1] was “weak inhibitors of noradrenaline uptake” and the “Potency Ratio (imipramine = 1.0) 5-Hydroxytryptamine” value [2] was 8.0. The “Inhibition of 5-hydroxytryptamine uptake (in words)” value [2] was “potent inhibitors of 5HT uptake”, the “BP (systolic blood pressure)” value (hypertensive rats [3]; [6]) was 64 % control and the “HR (heart rate)” value (hypertensive rats [3]; [6]) was 109 % control. For the same compound, the “BP (systolic blood pressure)” value (hypertensive rats [3]; [7]) was 82 % control, the “HR (heart rate)” value (hypertensive rats [3]; [7]) was 96 % control and the “BP (systolic blood pressure)” value (hypertensive rats [3]; [8]) was 99 % control. For the same compound, the “HR (heart rate)” value (hypertensive rats [3]; [8]) was 97 % control, the “BP (systolic blood pressure)” value (hypertensive rats [3]; [9]) was 49 % control and the “HR (heart rate)” value (hypertensive rats [3]; [9]) was 119 % control. The “BP (systolic blood pressure)” value (hypertensive rats [3]; [10]) was 52 % control, the “HR (heart rate)” value (hypertensive rats [3]; [10]) was 104 % control and the “BP (systolic blood pressure)” value (hypertensive rats [3]; [11]) was 79 % control. For the same compound, the “HR (heart rate)” value (hypertensive rats [3]; [11]) was 97 % control, the “BP (systolic blood pressure)” value (hypertensive rats [3]; [12]) was 51 % control and the “HR (heart rate)” value (hypertensive rats [3]; [12]) was 105 % control. The “BP (systolic blood pressure)” value (hypertensive rats [3]; [13]) was 51 % control, the “HR (heart rate)” value (hypertensive rats [3]; [13]) was 90 % control and the “BP (systolic blood pressure)” value (hypertensive rats [3]; [14]) was 62 % control. For the same compound, the “HR (heart rate)” value (hypertensive rats [3]; [14]) was 96 % control, the “Reduction of blood pressure (in words)” value (hypertensive rats [3]) was “marked reduction of blood pressure” and the “Anti-hypertensive activity (in words)” value (hypertensive rats [4]) was “marked activity”. For the same compound, the “CNS depression / signs of sedation (in words)” value (mice (CF-1); animals (mice), qualitative) was “induced signs of sedation at doses considerably lower than those of compound I required to induce a similar effect”, the “Lowest Dose to induce effect: Ataxia” value (mice (CF-1); [15]) was 127 mg/kg p.o and the “Lowest Dose to induce effect: Catalepsy” value (mice (CF-1); [15]) was 400 mg/kg p.o. The “Lowest Dose to induce effect: Decreased activity” value (mice (CF-1); [15]) was 4.0 mg/kg p.o, the “Lowest Dose to induce effect: Decreased respiration” value (mice (CF-1); [15]) was 400 mg/kg p.o and the “Lowest Dose to induce effect: Ptosis” value (mice (CF-1); [15]) was 40 mg/kg p.o. For the same compound, the “Effect on exploratory behaviour (in words)” value (mice) was “marked reduction of exploratory behaviour” and the “5HT antagonism: effect on responses of isolated rat ileum to 5-hydroxytryptamine” value ([5]; 10^-6 M, isolated rat ileum) was “non-competitive blockade”.
In the case of `O=C(NC(=O)c1ccccc1)NC1CCN(Cc2c[nH]c3ccccc23)CC1` [Compound I, 1-[1-(indol-3-ylmethyl)piperid-4-yl]-3-benzoyl urea], the “Potency Ratio (imipramine = 1.0) Noradrenaline” value [1] is reported as 0.06, the “Inhibition of noradrenaline uptake (in words)” value [1] is reported as “weak inhibitors of noradrenaline uptake” and the “Potency Ratio (imipramine = 1.0) 5-Hydroxytryptamine” value [2] is reported as 10.0. The “Inhibition of 5-hydroxytryptamine uptake (in words)” value [2] was “potent inhibitors of 5HT uptake”, the “BP (systolic blood pressure)” value (hypertensive rats [3]; [12]) was 90 % control and the “HR (heart rate)” value (hypertensive rats [3]; [12]) was 101 % control. For the same compound, the “BP (systolic blood pressure)” value (hypertensive rats [3]; [13]) was 102 % control, the “HR (heart rate)” value (hypertensive rats [3]; [13]) was 98 % control and the “BP (systolic blood pressure)” value (hypertensive rats [3]; [14]) was 106 % control. For the same compound, the “HR (heart rate)” value (hypertensive rats [3]; [14]) was 84 % control, the “Reduction of blood pressure (in words)” value (hypertensive rats [3]) was “without significant activity; also recorded: does not induce marked CNS depression in animals or significantly reduce the blood pressure of hypertensive rats” and the “Anti-hypertensive activity (in words)” value (hypertensive rats [4]) was “moderate activity”. For the same compound, the “CNS depression / signs of sedation (in words)” value (mice (CF-1); mouse, in vivo) was “does not induce marked CNS depression in animals”, the “Lowest Dose to induce effect: Decreased activity” value (mice (CF-1); mouse, in vivo, po, 120 min) was 400 mg/kg p.o and the “Lowest Dose to induce effect: Slight weakness” value (mice (CF-1); mouse, in vivo, po, 120 min) was 400 mg/kg p.o. For the same compound, the “Effect on exploratory behaviour (in words)” value (mice) was “virtually without effect”, the “5HT antagonism: effect on responses of isolated rat ileum to 5-hydroxytryptamine” value ([5]; 10^-6 M, isolated rat ileum) was “the responses to the subsequent administration of 5HT were not affected” and the “Direct effect on the isolated rat ileum preparation” value ([5]; 10^-6 M, isolated rat ileum) was “caused the preparation to relax”. The “Antagonism of the post-synaptic 5HT receptor in vitro (in words)” value ([5]; in vitro, summary statement) was “does not antagonise the post-synaptic 5HT receptor in vitro”.
`O=C(NC(=O)c1ccc(F)cc1)NC1CCN(Cc2c[nH]c3ccccc23)CC1` [Example 8, 1-(4-Fluorobenzoyl)-3-(1-[indol-3-ylmethyl]piperid-4-yl)urea] was tested, and the “Potency Ratio (imipramine = 1.0) Noradrenaline” value [1] was 0.1 and the “Potency Ratio (imipramine = 1.0) 5-Hydroxytryptamine” value [2] was 1.04.
`COc1ccc(C(=O)NC(=O)NC2CCN(Cc3c[nH]c4ccccc34)CC2)cc1` [Example 6, 3-(4-methoxybenzoyl)-1-(1-[indol-3-ylmethyl]piperid-4-yl)urea] was tested, and the “Potency Ratio (imipramine = 1.0) Noradrenaline” value [1] was 0.06 and the “Potency Ratio (imipramine = 1.0) 5-Hydroxytryptamine” value [2] was 5.0.
In the case of `Cc1[nH]c2ccccc2c1CN1CCC(NC(=O)NC(=O)c2ccccc2)CC1` [Example 4, 1-Benzoyl-3-[1-([2-methylindol-3-yl]methyl)piperid-4-yl]urea], the “Potency Ratio (imipramine = 1.0) Noradrenaline” value [1] is reported as 0.16 and the “Potency Ratio (imipramine = 1.0) 5-Hydroxytryptamine” value [2] is reported as 0.8.
`COc1cccc(C(=O)NC(=O)NC2CCN(Cc3c[nH]c4ccccc34)CC2)c1` [Example 11, 3-(3-Methoxybenzoyl)-1-(1-[indol-3-ylmethyl]piperid-4-yl)urea] was tested, and the “Potency Ratio (imipramine = 1.0) 5-Hydroxytryptamine” value [2] was 2.7.
In the case of `O=C(NC(=O)c1cccs1)NC1CCN(Cc2c[nH]c3ccccc23)CC1` [Example 3, 1-[1-(Indol-3-ylmethyl)piperid-4-yl]-3-(2-thenoyl)-urea], the “Potency Ratio (imipramine = 1.0) Noradrenaline” value [1] is reported as 0.19 and the “Potency Ratio (imipramine = 1.0) 5-Hydroxytryptamine” value [2] is reported as 7.8.
With `O=C(NC(=S)NC1CCN(Cc2c[nH]c3ccccc23)CC1)c1ccccc1` [Example 10, 1-[1-(Indol-3-ylmethyl)piperid-4-yl]-3-benzoylthiourea] the “Potency Ratio (imipramine = 1.0) 5-Hydroxytryptamine” value [2] was 6.5.
`O=C(NC(=O)c1ccccc1)NC1CCN(Cc2c[nH]c3ccc(O)cc23)CC1` [Example 5, 1-Benzoyl-3-[1-([5-hydroxyindol-3-yl]methyl)piperid-4-yl]urea] was tested, and the “Potency Ratio (imipramine = 1.0) Noradrenaline” value [1] was 0.2 and the “Potency Ratio (imipramine = 1.0) 5-Hydroxytryptamine” value [2] was 12.3.
For `COc1ccc2[nH]cc(CN3CCC(NC(=O)NC(=O)c4ccccc4)CC3)c2c1` [Example 2, 1-[1-(5-Methoxyindol-3-ylmethyl)piperid-4-yl]-3-benzoylurea], the “Potency Ratio (imipramine = 1.0) Noradrenaline” value [1] was “inactive” and the “Potency Ratio (imipramine = 1.0) 5-Hydroxytryptamine” value [2] was 3.2.
